Test results: ChEMBL document CHEMBL3769364, “Synthesis and structure-activity relationship studies of novel 3,9-substituted α-carboline derivatives with high cytotoxic activity against colorectal cancer cells” (Eur J Med Chem, 2016)

Key:
[1] = Cytotoxicity against human HL60 cells after 48 hrs by MTT assay; details: HL-60, 48 h
A498 = assay: Cytotoxicity against human A498 cells after 48 hrs by MTT assay; details: A498, 48 h
[2] = Cytotoxicity against human COLO205 cells after 48 hrs by MTT assay; details: COLO 205, 48 h
[3] = Cytotoxicity against human Hep3B cells after 48 hrs by MTT assay
Detroit 551 = assay: Cytotoxicity against human Detroit 551 cells after 48 hrs by MTT assay; details: Detroit 551, 48 h
[4] = Cytotoxicity against human H460 cells after 48 hrs by MTT assay; details: NCI-H460, 48 h

Measured: IC50

COC(=O)c1cnc2c(c1)c1ccccc1n2Cc1ccccc1
> 50 µM: [1] | A498 | [2] | [3] | Detroit 551 | [4]
